From ChEMBL document CHEMBL1126795, “Amesergide and structurally related nor-D-ergolines: 5HT2 receptor interactions in the rat” (J Med Chem, 1993)

test: Concentration required to inhibit pressor response to serotonin after 15 min i.v. administration of compound mediated via activation of vascular 5-HT2 receptors in rat; assay type: functional, organism-based

Concentration, 1 mg/kg:
CCCn1cc2c3c(cccc31)C[C@@H](N(C)CCC(=O)NC1CCCCC1)C2
CN(CCC(=O)NC1CCCCC1)[C@H]1Cc2cccc3[nH]cc(c23)C1
CN(CCC(=O)NC1CCCCC1)[C@@H]1Cc2cccc3[nH]cc(c23)C1
